Where two headings read alike, the source gives them in different places.

The results in this text go back to US20060167271A1, “Purified compounds that inhibit intracellular alphax4/paxillin binding” (priority 2002, published 2006).

For assay [1], the system named is integrin α4β1-mediated migration of Jurkat T cells. The experiment in a line: Cell migration assay (modified Boyden chamber). To be noted: Homo sapiens. The class given is cell-based. On the procedure: Cell migration was assayed in a modified Boyden chamber assay system as previously described [Rose et al. (2001) J. Immunol. 167, 2824-2830]. […] 167, 2824-2830]. Transwells (Costar, Corning) polycarbonate membranes containing 3.0 μm pores were coated with 5 μg/ml recombinant soluble VCAM-1. Membranes were blocked with 2% BSA in PBS for 30 minutes at room temperature. 2.0×10^5 cells in RPMI-1640 containing the indicated concentration of the compound and a final concentration of 0.1% DMSO were added to the top chamber. SDF-1α (R&D Systems) at a final concentration of 15 ng/ml was added to the bottom chamber. Cells were permitted to migrate for 4 hours at 37° C. Cells in the bottom chamber were enumerated with a hemocytometer, and data are expressed as percent inhibition of migration. Depicted are the mean and range of duplicate determinations from one of two studies with similar results.
The Jurkat E6-1 T leukemic cell line was purchased from American Type Culture Collection (ATCC), Rockville, Md. and cultured in RPMI-1640 (Biowhitaker Inc, Walkersville, Md.) supplemented with 10% FCS (Biowhitaker Inc), 1% glutamine, 50 units/ml penicillin, and 50 μg/ml streptomycin (Sigma Chemical, St Louis, Mo.).
Cell migration was assayed in a modified Boyden chamber assay system. […]

Assay [2] has as its target T1, binding of Paxillin to the α4 tail protein (Homo sapiens, UniProt P13612+P49023).
T1 construct: The design and production of recombinant cytoplasmic α4 tail polypeptide have been described; made in house; host or cells: E. coli BL21(DE3)pLysS for the α4 tail
The experiment in a line: Integrin tail affinity chromatography binding study. The protocol:
FIG. 6 in two parts as 6A and 6B includes results of an affinity chromatography binding study (6A) and scanning densitometry results shown in graphical form for the bound Paxillin (6B). In 6A, recombinant HA-tagged GST-Paxillin (100 nM) was added to Ni^2+-charged resin loaded with α4 tail protein in the absence (lane a) or presence of compound 11-A7B7C7 (lane b, 5 μM; lane c, 25 μM; lane d, 100 μM) or compound 11-A6B6C6 (lane e, 25 μM). Bound protein was collected and separated by SDS-PAGE under reducing conditions, transferred to a nitrocellulose membrane, and stained with HA-tag-specific antibody, 12CA5. In 6B, bound Paxillin was quantified by scanning densitometry of those immunoblots using the NIH Image program. The depicted results are representative from two studies.
In order to confirm the effectiveness and selectivity of Compound 11-A7B7C7 at inhibiting Paxillin/α4 binding, a series of binding studies was conducted using affinity chromatography techniques [Liu S et al. (1999) Nature 402, 676-681; and Pfaff et al. (1998) J. Biol. Chem. 273, 6104-6109]. […] Bound protein was collected and separated by electrophoresis and analyzed by immunoblotting.
Integrin tail affinity chromatography was performed as described [Rose (2001) J. Immunol. 167, 2824-2830]. […]

Assay [3] addresses T2, Paxillin/α4 binding (immobilized His-tagged α4 tail, soluble recombinant Paxillin) (Homo sapiens, UniProt P13612+P49023).
T2 construct: The design and production of recombinant cytoplasmic α4 tail polypeptide have been described; made in house; host or cells: E. coli BL21(DE3)pLysS for the α4 tail
The experiment in a line: Immobilized Paxillin/α4 binding assay (ELISA). On the procedure: FIG. 4 is a schematic representation of the high throughput screening by ELIZA used herein in which the α4 tail is coated onto a Ni-NTA microtiter plate (a), Paxillin is permitted to bind to α4 (b), first antibody is added (anti-Paxillin) (c), second antibody is added (HRP-conjugated, anti-mouse) (d), and Pax/α4 binding efficiency is measured by detection at 490 nm (e). For binding inhibition, compounds were added during Paxillin incubation (step b). […], zero % inhibition was measured from incubation with Paxillin and no compound.
Initially, roughly 40,000 compounds were screened in approximately 2000 wells (most as a mixture of 10 compounds, 50 μM total concentration) in an ELISA assay using an immobilized His-tagged α4 tail [Pfaff et al. (1998) J. Biol. Chem. 273, 6104-6109] and examining the binding inhibition of soluble recombinant Paxillin [Salgia et al. (1995) J. Biol. Chem. 270, 5039-5047] (FIG. 3).
Paxillin/α4 binding assays were performed as follows. Ni-NTA HisSorb microtiter strips (Qiagen) were coated overnight at 4° C. with purified α4 tail integrin (5 μg/ml, 100 μl per well) in PBS buffer (8 mM Na2HPO4, 1.5 mM KH2PO4, 135 mM NaCl, 2.5 mM KCl [pH 7.4]) supplemented with heat-denatured BSA (0.2%). The plates were washed three times with PBS buffer to remove unbound integrin, blocked with 150 μl of heat-denatured 1% BSA (denatured at 85° C. for 30 minutes and supplemented with 0.05% sodium azide) for 1 hour at room temperature, and washed again three times with PBS buffer.
Purified Paxillin in binding buffer (10% DMSO, 0.2% BSA in PBS buffer) was added to the wells at a concentration of 5 μg/ml in the presence or absence of compounds (1 mM DMSO stock solutions). […] As a control, blocked wells without integrin were examined for binding. After 1 hour at room temperature, the wells were washed three times with PBS buffer, incubated with first antibody (12CA5 ascites, 1/10000 in PBS plus 1% BSA, 100 μL) for 1 hour at room temperature, then with second antibody (100 μl HRP-conjugated anti-mouse [Biosource] in PBS buffer plus 1% BSA) for 1 hour at room temperature. Each well was treated with 50 μl of substrate solution (4 mg o-phenylenediamine, 4 μl of 30% H2O2, 80 mM citrate phosphate [pH 5]) and stopped after 10 minutes at room temperature with 50 μl H2SO4 (2 N). Binding was quantitated on a vmax kinetic microplate reader (Molecular Devices) at 490 nm. Zero % inhibition control was measured with Paxillin and no compound, and 100% inhibition control (background) was measured with no Paxillin and no compound. Each well was duplicated and percent inhibition was averaged.
In general terms: ELISA stands for enzyme-linked immunosorbent assay.

Where [4] appears, read: read-out: IC50 of Paxillin/α4 binding inhibition.
Where [5] appears, read: read-out: Inhibition of Pax/α4 binding (% at 1 μM).

T2 sequence (P13612 1002-1032 limits assumed): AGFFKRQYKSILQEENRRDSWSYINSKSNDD
T2 sequence (P49023 1-557 isoform P49023-2): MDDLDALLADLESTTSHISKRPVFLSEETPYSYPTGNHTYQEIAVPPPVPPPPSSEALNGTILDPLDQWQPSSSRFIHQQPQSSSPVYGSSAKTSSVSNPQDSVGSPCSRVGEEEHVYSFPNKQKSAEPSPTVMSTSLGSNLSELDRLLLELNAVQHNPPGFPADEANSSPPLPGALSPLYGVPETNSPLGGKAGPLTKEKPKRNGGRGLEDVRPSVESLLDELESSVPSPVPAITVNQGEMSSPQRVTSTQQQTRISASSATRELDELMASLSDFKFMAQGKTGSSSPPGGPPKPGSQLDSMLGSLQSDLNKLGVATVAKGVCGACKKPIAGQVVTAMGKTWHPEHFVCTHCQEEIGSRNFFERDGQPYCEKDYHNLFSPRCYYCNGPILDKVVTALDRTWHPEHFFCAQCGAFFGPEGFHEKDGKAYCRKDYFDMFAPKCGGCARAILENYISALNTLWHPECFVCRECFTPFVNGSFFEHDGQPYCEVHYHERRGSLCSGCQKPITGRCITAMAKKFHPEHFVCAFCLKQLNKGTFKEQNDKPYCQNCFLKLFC
T1 sequence (P13612 1002-1032 limits assumed): as the sequence (P13612 1002-1032 limits assumed) above
T1 sequence (P49023 1-557 isoform P49023-2): as the sequence (P49023 1-557 isoform P49023-2) above

For the compound `COC(=O)c1cc2c3c(ccc2[nH]1)N(C(=O)c1cc2c4c(ccc2[nH]1)N(C(=O)c1cc2c5c(ccc2[nH]1)N(C(=O)CCCN(C)C)CC5)CC4)CC3` [Compound 11-A7B7C7, DMABA-CDPI3-OMe], the inhibition at 15 µM in assay [1] (Jurkat, highest possible dose, 15 μM, read-out: Maximum inhibition of migration) was around 70%. Besides, the IC50 is around 10000 nM in assay [1] (Jurkat T cells, VCAM-1 coated membranes, SDF-1α, 4 hours, read-out: IC50 of inhibition of α4β1-mediated cell migration) and 0.3 µM in assay [3] (setting [4]). Moreover, the “Binding of Paxillin to the α4 tail protein” value in assay [2] (GST-Paxillin 100 nM, immunoblot) is on record as “markedly reduced”. For the same compound, the “Quantification of bound Paxillin (scanning densitometry)” value in assay [2] (concentrations as low as 5 μM) was “near background levels”. For the same compound, the inhibition at 1 µM in assay [3] (1 μM, read-out: Inhibition (%) of α4/Paxillin Binding by Deconvoluted Samples of 11-AxByCz) came out at 76%; in assay [3] (setting [5]), 78%.

Take `COC(=O)c1cc2c3c(ccc2[nH]1)N(C(=O)OC(C)(C)C)CC3` [Compound 15, Boc-CDPI-OMe]: the “Inhibition of Pax/α4 binding (% at 1 μM)” value in assay [3] (1 μM) is given as 3%.

Take `COC(=O)c1cc2c3c(ccc2[nH]1)NCC3` [Compound 16, H-CDPI-OMe]: the “Inhibition of Pax/α4 binding (% at 1 μM)” value in assay [3] (1 μM) is listed as 19%.

With `O=C(O)c1cc2c3c(ccc2[nH]1)NCC3` [Compound 17, H-CDPI-OH], in assay [3] (1 μM), the “Inhibition of Pax/α4 binding (% at 1 μM)” value stood at 11%.

For the compound `CC(C)(C)OC(=O)N1CCc2c1ccc1[nH]c(C(=O)O)cc21` [Compound 18, Boc-CDPI-OH], the “Inhibition of Pax/α4 binding (% at 1 μM)” value in assay [3] (1 μM) is listed as 6%.

Take `COC(=O)c1cc2c3c(ccc2[nH]1)N(C(=O)c1cc2c4c(ccc2[nH]1)N(C(=O)OC(C)(C)C)CC4)CC3` [Compound 20, Boc-CDPI2-OMe]: the “Inhibition of Pax/α4 binding (% at 1 μM)” value in assay [3] (1 μM) was determined as 13%.

As for `COC(=O)c1cc2c3c(ccc2[nH]1)N(C(=O)c1cc2c4c(ccc2[nH]1)NCC4)CC3` [Compound 21, H-CDPI2-OMe], the “Inhibition of Pax/α4 binding (% at 1 μM)” value in assay [3] (1 μM) worked out at 14%.

Take `O=C(O)c1cc2c3c(ccc2[nH]1)N(C(=O)c1cc2c4c(ccc2[nH]1)NCC4)CC3` [Compound 23, H-CDPI2-OH]: the “Inhibition of Pax/α4 binding (% at 1 μM)” value in assay [3] (1 μM) is 27%.

Take `COC(=O)c1cc2c3c(ccc2[nH]1)N(C(=O)c1cc2c4c(ccc2[nH]1)N(C(=O)c1cc2c5c(ccc2[nH]1)NCC5)CC4)CC3` [Compound 25, H-CDPI3-OMe]: the IC50 in assay [3] (setting [4]) turned out to be 0.3 µM. Also, the inhibition at 1 µM in assay [3] (setting [5]) worked out at 73%.

`O=C(O)c1cc2c3c(ccc2[nH]1)N(C(=O)c1cc2c4c(ccc2[nH]1)N(C(=O)c1cc2c5c(ccc2[nH]1)NCC5)CC4)CC3` [Compound 26, H-CDPI3-OH]: the “Paxillin/α4 binding inhibition, result in words” value in assay [3] is listed as “only a slight reduction in potency”. Moreover, the inhibition at 1 µM in assay [3] (setting [5]) stood at 68%. Further, the IC50 in assay [3] (read-out: inhibition of Pax/α4 binding (IC50 in μM)) stood at 0.5 µM.

Boc-CDPI3-OMe [Compound 24]: the “Paxillin/α4 binding inhibition, result in words” value in assay [3] is on record as “substantial loss of activity”. Further, the “Inhibition of Pax/α4 binding (% at 1 μM)” value in assay [3] (1 μM) was determined as 25%.

Consider DMABA-CDPI2-OMe [Compound 22], for which the “Inhibition of Pax/α4 binding (% at 1 μM)” value in assay [3] (1 μM) was determined as 36%.

Consider DMABA-CDPI-OMe [Compound 19], for which, in assay [3] (1 μM), the “Inhibition of Pax/α4 binding (% at 1 μM)” value is recorded as −3%.
